How the values were obtained:
c-Abl = target: T1, c-Abl (Homo sapiens, UniProt P00519); test: Test for activity against c-Abl protein tyrosine kinase (filter binding assay); format: biochemical
T1 construct: The His-tagged kinase domain of c-Abl is cloned and expressed in the baculovirus/Sf9 system; His; made in house; host or cells: baculovirus/Sf9
T1 sequence (P00519 242-493 limits assumed): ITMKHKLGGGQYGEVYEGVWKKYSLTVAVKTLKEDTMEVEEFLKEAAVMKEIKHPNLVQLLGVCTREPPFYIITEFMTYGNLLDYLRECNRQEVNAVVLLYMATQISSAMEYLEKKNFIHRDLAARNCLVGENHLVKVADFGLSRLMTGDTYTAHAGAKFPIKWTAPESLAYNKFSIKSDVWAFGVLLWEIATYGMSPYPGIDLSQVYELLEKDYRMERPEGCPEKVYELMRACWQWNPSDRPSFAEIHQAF
Experimental: Test for activity against c-Abl protein tyrosine kinase. The test is conducted as a filter binding assay as follows: The His-tagged kinase domain of c-Abl is cloned and expressed in the baculovirus/Sf9 system as described by Bhat et al., J Biol. Chem. 272, 16170-5 (1997). A protein of 37 kD (c-Abl kinase) is purified by a two-step procedure over a Cobalt metal chelate column followed by an anion exchange column with a yield of 1-2 mg/L of Sf9 cells. The purity of the c-Abl kinase is >90% as judged by SDS-PAGE after Coomassie blue staining. The assay contains: c-Abl kinase (50 ng), 20 mM Tris.HCl, pH 7.5, 10 mM MgCl2, 10 μM Na3VO4, 1 mM DTT and 0.06 μCi/assay [γ^33 P]-ATP (5 μM ATP) using 30 μg/mL poly-Ala,Glu,Lys,Tyr-6:2:5:1 (Poly-AEKY, Sigma P1152) in the presence of 1% DMSO, total volume of 30 μL. Reactions are terminated by adding 10 μL of 250 mM EDTA, and 30 μL of the reaction mixture is transferred onto Immobilon-PVDF membrane (Millipore, Bedford, Mass., USA) previously soaked for 5 min with methanol, rinsed with water, then soaked for 5 min with 0.5% H3PO4 and mounted on vacuum manifold with disconnected vacuum source. After spotting all samples, vacuum is connected and each well rinsed with 200 μL 0.5% H3PO4. Membranes are removed and washed on a shaker with 0.5% H3PO4 (4 times) and once with ethanol. Membranes are counted after drying at ambient temperature, mounting in Packard TopCount 96-well frame, and addition of 10 μL/well of Microscint™ (Packard).
(§1) Enzymatic (c-Abl, KDR, Flt3) in vitro inhibition data are presented as % inhibition at 10 μM. The measurements are made as described above in the general description.

KDR = KDR (Homo sapiens, UniProt P35968); test: Enzymatic KDR in vitro inhibition; format: biochemical
Experimental: Test for activity against VEGF-receptor tyrosine kinase. The test is conducted using Flt-1 VEGF-receptor tyrosine kinase. The detailed procedure is as follows: 30 μL kinase solution (10 ng of the kinase domain of Flt-1, Shibuya et al., Oncogene 5, 519-24 [1990]) in 20 mM Tris.HCl pH 7.5, 3 mM manganese dichloride (MnCl2), 3 mM magnesium chloride (MgCl2), 10 μM sodium vanadate, 0.25 mg/mL polyethylenglycol (PEG) 20000, 1 mM dithiothreitol and 3 μg/μL poly(Glu,Tyr) 4:1 (Sigma, Buchs, Switzerland), 8 μM [^33P]-ATP (0.2 μCi), 1% DMSO, and 0 to 100 μM of the compound to be tested are incubated together for 10 minutes at room temperature. The reaction is then terminated by the addition of 10 μL 0.25 M ethylenediaminetetraacetate (EDTA) pH 7. Using a multichannel dispenser (LAB SYSTEMS, USA), an aliquot of 20 μL is applied to a PVDF (=polyvinyl difluoride) Immobilon P membrane (Millipore, Bedford, USA), through a Gibco-BRL microtiter filter manifold and connected to a vacuum. Following complete elimination of the liquid, the membrane is washed 4 times successively in a bath containing 0.5% phosphoric acid (H3PO4) and once with ethanol, incubated for 10 minutes each time while shaking, then mounted in a Hewlett Packard TopCount Manifold and the radioactivity measured after the addition of 10 μL Microscint® (β-scintillation counter liquid). IC50-values are determined by linear regression analysis of the percentages for the inhibition of each compound in at least four concentrations (as a rule 0.01, 0.1, 1.0 and 10 μmol).
as §1

Sequence of KDR (P35968 20-1356): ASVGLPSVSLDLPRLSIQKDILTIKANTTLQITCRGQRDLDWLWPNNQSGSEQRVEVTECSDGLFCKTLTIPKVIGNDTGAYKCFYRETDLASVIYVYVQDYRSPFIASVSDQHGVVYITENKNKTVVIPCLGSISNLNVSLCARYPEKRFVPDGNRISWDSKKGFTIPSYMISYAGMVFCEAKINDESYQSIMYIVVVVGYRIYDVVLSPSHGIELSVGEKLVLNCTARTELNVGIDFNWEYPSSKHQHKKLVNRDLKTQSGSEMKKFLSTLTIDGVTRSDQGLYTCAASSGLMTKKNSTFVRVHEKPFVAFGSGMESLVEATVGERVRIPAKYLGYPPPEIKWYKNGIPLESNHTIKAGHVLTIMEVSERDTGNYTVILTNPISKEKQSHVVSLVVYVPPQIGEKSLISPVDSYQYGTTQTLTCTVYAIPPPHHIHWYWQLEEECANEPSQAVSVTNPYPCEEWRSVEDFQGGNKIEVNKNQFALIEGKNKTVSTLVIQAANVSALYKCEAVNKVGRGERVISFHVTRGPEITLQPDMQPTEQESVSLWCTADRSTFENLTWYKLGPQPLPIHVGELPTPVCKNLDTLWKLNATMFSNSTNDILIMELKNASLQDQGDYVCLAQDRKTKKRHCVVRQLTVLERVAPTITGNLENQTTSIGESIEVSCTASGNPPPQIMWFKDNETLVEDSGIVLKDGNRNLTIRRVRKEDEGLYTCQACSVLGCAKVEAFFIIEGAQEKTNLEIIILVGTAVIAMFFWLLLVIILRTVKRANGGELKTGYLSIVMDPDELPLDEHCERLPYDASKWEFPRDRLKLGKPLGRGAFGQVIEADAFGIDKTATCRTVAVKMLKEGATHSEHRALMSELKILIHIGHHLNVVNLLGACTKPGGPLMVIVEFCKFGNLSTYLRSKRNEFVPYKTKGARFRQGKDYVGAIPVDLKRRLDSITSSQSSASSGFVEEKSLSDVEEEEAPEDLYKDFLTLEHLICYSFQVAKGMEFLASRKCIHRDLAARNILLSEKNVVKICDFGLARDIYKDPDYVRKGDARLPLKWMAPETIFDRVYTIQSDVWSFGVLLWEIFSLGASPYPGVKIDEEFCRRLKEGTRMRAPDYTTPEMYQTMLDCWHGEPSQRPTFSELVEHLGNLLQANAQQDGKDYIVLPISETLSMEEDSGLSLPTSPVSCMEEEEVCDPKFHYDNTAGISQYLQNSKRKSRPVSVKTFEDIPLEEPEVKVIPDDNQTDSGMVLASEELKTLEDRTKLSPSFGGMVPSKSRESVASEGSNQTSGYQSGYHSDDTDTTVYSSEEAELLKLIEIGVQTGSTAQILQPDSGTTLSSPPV

Molecule | inhibition at 10 µM (c-Abl) | inhibition at 10 µM (KDR) | Abl %@10 μM (c-Abl; % inhibition at 10 μM) | KDR %@10 μM (KDR; % inhibition at 10 μM)
Cc1ccc(C(=O)NCC(C)C)cc1Nc1nccc(-c2cccnc2)n1 [Example 9, 4-Methyl-N-(2-methylpropyl)-3-[[4-(3-pyridinyl)-2-pyrimidinyl]amino]benzamide] | 44% | 39% |  | 
COc1ccc(NC(=O)c2ccc(C)c(Nc3nccc(-c4cccnc4)n3)c2)c(C)c1 [Example 23, N-(4-Methoxy-2-methylphenyl)-4-methyl-3-[[4-(3-pyridinyl)-2-pyrimidinyl]amino]benzamide] | 90% | 67% |  | 
Cc1ccc(C(=O)Nc2cccc(Cl)c2)cc1Nc1nccc(-c2cccnc2)n1 [Example 48, N-(3-Chlorophenyl)-4-methyl-3-[[4-(3-pyridinyl)-2-pyrimidinyl]amino]benzamide] | 90% | 50% |  | 
Cc1ccc(C(=O)N2CCc3ccccc3C2)cc1Nc1nccc(-c2cccnc2)n1 [Example 44, 2-[4-Methyl-3-[[4-(3-pyridinyl)-2-pyrimidinyl]amino]benzoyl]-1,2,3,4-tetrahydro-isoquinoline] | 75% | 97% |  | 
Cc1ccc(C(=O)Nc2cccc(C(=O)c3ccccc3)c2)cc1Nc1nccc(-c2cccnc2)n1 [Example 60, N-(3-Benzoylphenyl)-4-methyl-3-[[4-(3-pyridinyl)-2-pyrimidinyl]amino]benzamide] | 79% | 36% |  | 
Cc1ccc(C(=O)NCC2CCCO2)cc1Nc1nccc(-c2cccnc2)n1 (centres unmarked) [Example 11, 4-Methyl-3-[[4-(3-pyridinyl)-2-pyrimidinyl]amino]-N-[(tetrahydro-2-furanyl)methyl]benzamide] | 53% | 41% |  | 
Cc1ccc(C(=O)NCCCN2CCCC2=O)cc1Nc1nccc(-c2cccnc2)n1 [Example 20, 4-Methyl-N-[3-(2-oxo-1-pyrrolidinyl)propyl]-3-[[4-(3-pyridinyl)-2-pyrimidinyl]amino]benzamide] | 56% | 22% |  | 
CCN(CC)C(=O)c1ccc(C)c(Nc2nccc(-c3cccnc3)n2)c1 [Example 31, N,N-Diethyl-4-methyl-3-[[4-(3-pyridinyl)-2-pyrimidinyl]amino]benzamide] | 68% | 83% |  | 
Cc1ccc(C(=O)N2CCN(C3CCCC3)CC2)cc1Nc1nccc(-c2cccnc2)n1 [Example 40, 1-Cyclopentyl-4-[4-methyl-3-[[4-(3-pyridinyl)-2-pyrimidinyl]amino]benzoyl]piperazine] | 65% | 78% |  | 
CCOC(=O)Cc1ccc(NC(=O)c2ccc(C)c(Nc3nccc(-c4cccnc4)n3)c2)cc1 [Example 62, 4-[[4-Methyl-3-[[4-(3-pyridinyl)-2-pyrimidinyl]amino]benzoyl]amino]benzene-acetic acid ethyl ester] | 59% | 44% |  | 
Cc1ccc(C(=O)NCc2cc(C(C)(C)O)cc(C(F)(F)F)c2)cc1Nc1nccc(-c2cccnc2)n1 [Example 68, 4-Methyl-3-[[4-(3-pyridinyl)-2-pyrimidinyl]amino]-N-[[3-[(1-hydroxy-1-methyl-ethyl)]-5-(1,1,1-trifluoromethyl)phenyl]methyl]benzamide] | 99% | 96% |  | 
COC(=O)CNC(=O)c1ccc(C)c(Nc2nccc(-c3cccnc3)n2)c1 [Example 27, N-[4-Methyl-3-[[4-(3-pyridinyl)-2-pyrimidinyl]amino]benzoyl]glycine methyl ester] | 54% | 51% |  | 
CCOC(=O)N1CCN(C(=O)c2ccc(C)c(Nc3nccc(-c4cccnc4)n3)c2)CC1 [Example 43, 4-[4-Methyl-3-[[4-(3-pyridinyl)-2-pyrimidinyl]amino]benzoyl]-1-piperazinecarboxylic acid ethyl ester] | 37% | 63% |  | 
Cc1ccc(C(=O)NCC(=O)OC(C)(C)C)cc1Nc1nccc(-c2cccnc2)n1 [Example 61, N-[4-Methyl-3-[[4-(3-pyridinyl)-2-pyrimidinyl]amino]benzoyl]-glycine 1,1-dimethylethyl ester] | 95% | 65% |  | 
Cc1ccc(C(=O)NCCN2CCCCC2)cc1Nc1nccc(-c2cccnc2)n1 [Example 52, 4-Methyl-N-[2-(1-piperidinyl)ethyl]-3-[[4-(3-pyridinyl)-2-pyrimidinyl]amino]benzamide] | 78% | 37% |  | 
Cc1ccc(C(=O)NC2CCc3ccccc32)cc1Nc1nccc(-c2cccnc2)n1 (centres unmarked) [Example 50, N-(2,3-Dihydro-1H-inden-1-yl)-4-methyl-3-[[4-(3-pyridinyl)-2-pyrimidinyl]amino]benzamide] | 87% | 83% |  | 
Cc1ccc(C(=O)NCc2ccc(N(C)C)cc2)cc1Nc1nccc(-c2cccnc2)n1 [Example 25, N-[[4-(Dimethylamino)phenyl]methyl]-4-methyl-3-[[4-(3-pyridinyl)-2-pyrimidinyl]amino]benzamide] | 44% | 73% |  | 
4-Methyl-N-[(5-methylpyrazinyl)methyl]-3-[[4-(3-pyridinyl)-2-pyrimidinyl]amino]benzamide [Example 55] |  |  | 43% | 54%
Cc1ccc(C(=O)Nc2cccc3c2CCCC3)cc1Nc1nccc(-c2cccnc2)n1 [Example 53, 4-Methyl-3-[[4-(3-pyridinyl)-2-pyrimidinyl]amino]-N-(5,6,7,8-tetrahydro-1-naphthalenyl)benzamide] | 88% | 79% |  | 
Cc1ccc(C(=O)NCCc2cnc(O)nc2O)cc1Nc1nccc(-c2cccnc2)n1 [Example 12, N-[2-(2,4-Dihydroxy-5-pyrimidinyl)ethyl]-4-methyl-3-[[4-(3-pyridinyl)-2-pyrimidinyl]amino]benzamide] | 22% | 33% |  | 
Cc1ccc(C(=O)NCc2ccc(S(N)(=O)=O)cc2)cc1Nc1nccc(-c2cccnc2)n1 [Example 29, N-[[4-(Aminosulfonyl)phenyl]methyl]-4-methyl-3-[[4-(3-pyridinyl)-2-pyrimidinyl]amino]benzamide] | 78% |  |  | 
CCOC(=O)CN(Cc1ccccc1)C(=O)c1ccc(C)c(Nc2nccc(-c3cccnc3)n2)c1 [Example 47, N-[4-Methyl-3-[[4-(3-pyridinyl)-2-pyrimidinyl]amino]benzoyl]-N-(phenylmethyl)-glycine ethyl ester] | 39% | 74% |  | 
Cc1ccc(C(=O)NCCN2CCNC2=O)cc1Nc1nccc(-c2cccnc2)n1 [Example 57, 4-Methyl-N-[2-(2-oxo-1-imidazolidinyl)ethyl]-3-[[4-(3-pyridinyl)-2-pyrimidinyl]amino]benzamide] | 8% | 42% |  | 
COc1ccc(N2CCN(C(=O)c3ccc(C)c(Nc4nccc(-c5cccnc5)n4)c3)CC2)cc1 [Example 36, 1-(4-Methoxyphenyl)-4-[4-methyl-3-[[4-(3-pyridinyl)-2-pyrimidinyl]amino]-benzoyl]piperazine] | 57% | 77% |  | 

From US7956053B2, “Inhibitors of tyrosine kinases” (Novartis AG, priority 2002, dated 2011)
